Data published in ChEMBL document CHEMBL5154743, “Bicyclic Heterocyclic Replacement of an Aryl Amide Leading to Potent and Kinase-Selective Adaptor Protein 2-Associated Kinase 1 Inhibitors” (J Med Chem, 2022).

Columns and labels:
[1] = biological target: T1, AP2-associated protein kinase 1 (Homo sapiens, UniProt Q2M2I8)
[2] = Permeability of the compound at pH 5.5 by PAMPA; assay type: ADME; conditions: read-out: permeability
[3] = Permeability of the compound at pH 7.4 by PAMPA; assay type: ADME; conditions: read-out: permeability
[4] = Brain concentration in C57BL6 mouse at 60 mg/kg, sc by LC-MS analysis; assay type: ADME, organism-based; conditions: in vivo, read-out: Ct
[5] = Plasma concentration in C57BL6 mouse at 60 mg/kg, sc by LC-MS/MS analysis; assay type: ADME, organism-based; conditions: in vivo
[6] = Permeability across basolateral to apical side in human Caco-2 cells incubated for 2 hrs by LC-MS/MS analysis; assay type: ADME, cell-based; conditions: for Papp B→A at 2 h: Caco-2, read-out: permeability
[7] = Ratio of drug concentration in brain to plasma in C57BL6 mouse at 60 mg/kg, sc; assay type: ADME, organism-based; conditions: read-out: BPR
[8] = Unbound brain to plasma concentration ratio in C57BL6 mouse at 60 mg/kg, sc; assay type: ADME, organism-based; conditions: read-out: K(p,uu,brain)
[9] = Plasma protein binding in rat assessed as unbound fraction at 10 uM incubated for 5 hrs by rapid equlibrium dialysis based LC-MS/MS method
[10] = Metabolic stability in mouse liver microsomes assessed as parent compound remaining at 0.5 uM incubated for 10 mins in presence of NADPH by LC-MS/MS analysis; assay type: ADME, Microsome; conditions: read-out: Stability
[11] = Unbound brain to plasma concentration ratio in C57BL6 mouse at 30 mg/kg, sc; assay type: ADME, organism-based; conditions: read-out: K(p,uu,brain)
[12] = Metabolic stability in rat liver microsomes assessed as parent compound remaining at 0.5 uM incubated for 10 mins in presence of NADPH by LC-MS/MS analysis; assay type: ADME, Microsome; conditions: read-out: Stability
[13] = Permeability across apical to basolateral side in human Caco-2 cells incubated for 2 hrs by LC-MS/MS analysis
[14] = Ratio of drug concentration in brain to plasma in C57BL6 mouse at 30 mg/kg, sc; assay type: ADME, organism-based; conditions: read-out: BPR
[15] = Brain concentration in C57BL6 mouse at 30 mg/kg, sc by LC-MS analysis; assay type: ADME, organism-based; conditions: in vivo, read-out: Ct
[16] = biological target: T1, AP2-associated protein kinase 1; test: Inhibition of full length human AAK1 expressed in HEK293F incubated for 3 hrs by Western blot analysis; assay type: cell-based
[17] = Plasma concentration in C57BL6 mouse at 30 mg/kg, sc by LC-MS/MS analysis; assay type: ADME, organism-based; conditions: in vivo
[18] = Plasma protein binding in human assessed as unbound fraction at 10 uM incubated for 5 hrs by rapid equlibrium dialysis based LC-MS/MS method
[19] = Plasma protein binding in mouse assessed as unbound fraction at 10 uM incubated for 5 hrs by rapid equlibrium dialysis based LC-MS/MS method
[20] = Metabolic stability in human liver microsomes assessed as parent compound remaining at 0.5 uM incubated for 10 mins in presence of NADPH by LC-MS/MS analysis; assay type: ADME, Microsome; conditions: read-out: Stability
[21] = biological target: BMP-2-inducible protein kinase (Homo sapiens, UniProt Q9NSY1); test: Inhibition of BIKE (unknown origin)
Chain of BMP-2-inducible protein kinase (Q9NSY1 whole entry): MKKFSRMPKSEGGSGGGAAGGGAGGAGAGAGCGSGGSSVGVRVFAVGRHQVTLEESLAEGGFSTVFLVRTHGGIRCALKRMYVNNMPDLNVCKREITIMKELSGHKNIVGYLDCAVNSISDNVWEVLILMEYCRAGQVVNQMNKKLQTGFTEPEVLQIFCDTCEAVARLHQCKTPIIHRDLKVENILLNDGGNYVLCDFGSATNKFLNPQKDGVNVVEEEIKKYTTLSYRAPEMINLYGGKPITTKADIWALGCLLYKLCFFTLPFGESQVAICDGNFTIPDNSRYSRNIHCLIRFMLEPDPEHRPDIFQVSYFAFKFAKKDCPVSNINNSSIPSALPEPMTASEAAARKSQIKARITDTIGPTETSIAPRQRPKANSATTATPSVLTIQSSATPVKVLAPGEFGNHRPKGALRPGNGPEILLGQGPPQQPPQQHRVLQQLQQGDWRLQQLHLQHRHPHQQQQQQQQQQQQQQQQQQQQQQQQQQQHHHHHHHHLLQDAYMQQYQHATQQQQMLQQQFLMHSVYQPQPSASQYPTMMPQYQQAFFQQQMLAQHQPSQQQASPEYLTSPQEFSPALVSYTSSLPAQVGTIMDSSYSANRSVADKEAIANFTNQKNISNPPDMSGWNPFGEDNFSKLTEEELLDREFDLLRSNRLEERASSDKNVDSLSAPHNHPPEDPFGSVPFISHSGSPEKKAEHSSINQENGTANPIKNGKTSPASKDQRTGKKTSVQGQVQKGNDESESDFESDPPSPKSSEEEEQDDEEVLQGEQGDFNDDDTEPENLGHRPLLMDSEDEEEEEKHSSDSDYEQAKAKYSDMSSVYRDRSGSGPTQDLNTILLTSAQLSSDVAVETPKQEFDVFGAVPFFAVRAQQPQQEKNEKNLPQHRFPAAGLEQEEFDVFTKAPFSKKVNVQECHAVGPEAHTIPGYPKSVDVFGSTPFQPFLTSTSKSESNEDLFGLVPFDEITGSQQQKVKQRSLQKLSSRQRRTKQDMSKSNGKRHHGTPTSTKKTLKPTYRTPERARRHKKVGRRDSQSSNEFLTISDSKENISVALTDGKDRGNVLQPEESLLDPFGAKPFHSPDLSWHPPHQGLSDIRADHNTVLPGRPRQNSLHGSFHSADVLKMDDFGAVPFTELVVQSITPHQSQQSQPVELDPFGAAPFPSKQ

[22] = biological target: Serine/threonine-protein kinase 16 (Homo sapiens, UniProt O75716); test: Inhibition of MPSK1 (unknown origin)
Chain of Serine/threonine-protein kinase 16 (O75716 whole entry): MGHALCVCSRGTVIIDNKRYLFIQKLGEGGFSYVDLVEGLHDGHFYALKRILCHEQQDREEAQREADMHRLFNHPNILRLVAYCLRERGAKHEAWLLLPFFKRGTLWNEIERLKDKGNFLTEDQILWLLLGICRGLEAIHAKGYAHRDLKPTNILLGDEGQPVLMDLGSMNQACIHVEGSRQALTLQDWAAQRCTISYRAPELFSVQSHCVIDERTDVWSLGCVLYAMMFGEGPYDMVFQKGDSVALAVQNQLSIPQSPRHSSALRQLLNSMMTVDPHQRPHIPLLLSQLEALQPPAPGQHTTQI

[23] = biological target: T2, Serine/threonine-protein kinase Chk1 (Homo sapiens, UniProt O14757); test: Inhibition of CHK1 (unknown origin)
T2 sequence (O14757 whole entry): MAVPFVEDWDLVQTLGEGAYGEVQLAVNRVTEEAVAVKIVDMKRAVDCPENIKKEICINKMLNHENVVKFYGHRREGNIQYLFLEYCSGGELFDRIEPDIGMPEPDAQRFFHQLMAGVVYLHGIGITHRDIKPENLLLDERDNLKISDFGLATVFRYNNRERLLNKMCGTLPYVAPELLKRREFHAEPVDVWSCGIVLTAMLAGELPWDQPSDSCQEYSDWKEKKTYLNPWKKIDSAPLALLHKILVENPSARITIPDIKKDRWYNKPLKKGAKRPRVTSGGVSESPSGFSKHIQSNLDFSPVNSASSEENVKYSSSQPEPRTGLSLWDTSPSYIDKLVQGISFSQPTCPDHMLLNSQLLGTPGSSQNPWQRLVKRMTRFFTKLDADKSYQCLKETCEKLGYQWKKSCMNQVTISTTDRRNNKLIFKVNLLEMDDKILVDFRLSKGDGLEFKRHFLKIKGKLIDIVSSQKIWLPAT

[24] = biological target: T3, Cyclin-G-associated kinase (Homo sapiens, UniProt O14976); test: Inhibition of GAK (unknown origin)
T3 sequence (O14976 whole entry): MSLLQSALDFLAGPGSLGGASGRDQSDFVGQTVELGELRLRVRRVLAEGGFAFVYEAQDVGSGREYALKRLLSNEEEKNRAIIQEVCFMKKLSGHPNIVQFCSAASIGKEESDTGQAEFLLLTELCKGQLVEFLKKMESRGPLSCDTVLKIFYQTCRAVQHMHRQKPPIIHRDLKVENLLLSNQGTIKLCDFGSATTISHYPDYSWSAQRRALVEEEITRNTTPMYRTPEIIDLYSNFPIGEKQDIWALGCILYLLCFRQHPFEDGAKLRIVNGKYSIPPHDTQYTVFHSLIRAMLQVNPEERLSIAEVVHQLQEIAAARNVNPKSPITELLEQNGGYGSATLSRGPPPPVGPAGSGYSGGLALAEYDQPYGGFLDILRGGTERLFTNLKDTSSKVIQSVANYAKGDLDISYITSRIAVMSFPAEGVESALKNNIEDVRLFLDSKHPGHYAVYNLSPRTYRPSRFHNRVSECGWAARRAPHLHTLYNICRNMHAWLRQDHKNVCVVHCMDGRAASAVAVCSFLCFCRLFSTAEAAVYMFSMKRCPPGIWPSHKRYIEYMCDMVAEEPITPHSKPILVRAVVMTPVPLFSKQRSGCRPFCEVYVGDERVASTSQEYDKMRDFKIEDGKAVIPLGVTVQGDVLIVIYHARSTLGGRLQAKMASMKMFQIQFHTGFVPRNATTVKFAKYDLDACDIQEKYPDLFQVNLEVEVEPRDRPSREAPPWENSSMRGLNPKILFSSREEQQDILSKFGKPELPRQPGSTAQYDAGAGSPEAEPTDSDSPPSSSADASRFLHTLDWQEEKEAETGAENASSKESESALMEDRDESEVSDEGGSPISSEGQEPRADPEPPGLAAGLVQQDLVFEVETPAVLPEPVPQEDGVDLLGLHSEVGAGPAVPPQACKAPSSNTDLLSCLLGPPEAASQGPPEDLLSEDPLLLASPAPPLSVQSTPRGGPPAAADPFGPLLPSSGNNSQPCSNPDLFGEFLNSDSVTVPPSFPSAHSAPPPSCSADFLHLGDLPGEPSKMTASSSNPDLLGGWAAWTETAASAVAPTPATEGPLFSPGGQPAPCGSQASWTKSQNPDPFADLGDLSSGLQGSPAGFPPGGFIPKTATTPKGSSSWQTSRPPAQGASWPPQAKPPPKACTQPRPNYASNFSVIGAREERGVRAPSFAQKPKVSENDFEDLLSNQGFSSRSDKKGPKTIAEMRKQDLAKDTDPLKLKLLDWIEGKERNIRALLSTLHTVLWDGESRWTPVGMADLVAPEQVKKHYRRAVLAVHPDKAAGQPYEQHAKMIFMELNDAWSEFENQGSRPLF

[25] = biological target: Glycogen synthase kinase-3 beta (Homo sapiens, UniProt P49841); test: Inhibition of GSK3beta (unknown origin)
Chain of Glycogen synthase kinase-3 beta (P49841 whole entry): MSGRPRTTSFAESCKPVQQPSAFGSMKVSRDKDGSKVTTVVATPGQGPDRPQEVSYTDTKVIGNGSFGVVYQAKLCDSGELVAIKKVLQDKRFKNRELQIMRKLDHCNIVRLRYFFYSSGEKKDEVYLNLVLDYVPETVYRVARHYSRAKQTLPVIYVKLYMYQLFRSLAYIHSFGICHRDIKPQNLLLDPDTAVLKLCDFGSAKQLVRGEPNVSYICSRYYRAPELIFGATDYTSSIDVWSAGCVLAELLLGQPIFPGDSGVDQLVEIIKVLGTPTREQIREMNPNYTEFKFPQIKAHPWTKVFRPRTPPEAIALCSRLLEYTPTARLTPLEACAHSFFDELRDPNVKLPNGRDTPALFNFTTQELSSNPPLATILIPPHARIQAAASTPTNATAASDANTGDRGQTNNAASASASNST

[26] = biological target: MAP kinase-interacting serine/threonine-protein kinase 1 (Homo sapiens, UniProt Q9BUB5); test: Inhibition of MNK1 (unknown origin)
Chain of MAP kinase-interacting serine/threonine-protein kinase 1 (Q9BUB5 whole entry): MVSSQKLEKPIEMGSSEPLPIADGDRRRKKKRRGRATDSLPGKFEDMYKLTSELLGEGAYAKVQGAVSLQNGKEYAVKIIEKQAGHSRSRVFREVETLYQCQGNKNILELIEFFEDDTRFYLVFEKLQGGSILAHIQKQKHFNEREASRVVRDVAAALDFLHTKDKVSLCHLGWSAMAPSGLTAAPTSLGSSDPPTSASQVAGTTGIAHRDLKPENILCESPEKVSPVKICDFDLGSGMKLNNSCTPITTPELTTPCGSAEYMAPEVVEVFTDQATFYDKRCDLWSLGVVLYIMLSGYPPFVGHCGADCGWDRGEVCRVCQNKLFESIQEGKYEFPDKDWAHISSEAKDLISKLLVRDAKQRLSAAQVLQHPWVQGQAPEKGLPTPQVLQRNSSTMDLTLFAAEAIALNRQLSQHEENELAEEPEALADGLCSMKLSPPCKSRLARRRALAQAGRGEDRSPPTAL

T1 sequence (Q2M2I8 whole entry): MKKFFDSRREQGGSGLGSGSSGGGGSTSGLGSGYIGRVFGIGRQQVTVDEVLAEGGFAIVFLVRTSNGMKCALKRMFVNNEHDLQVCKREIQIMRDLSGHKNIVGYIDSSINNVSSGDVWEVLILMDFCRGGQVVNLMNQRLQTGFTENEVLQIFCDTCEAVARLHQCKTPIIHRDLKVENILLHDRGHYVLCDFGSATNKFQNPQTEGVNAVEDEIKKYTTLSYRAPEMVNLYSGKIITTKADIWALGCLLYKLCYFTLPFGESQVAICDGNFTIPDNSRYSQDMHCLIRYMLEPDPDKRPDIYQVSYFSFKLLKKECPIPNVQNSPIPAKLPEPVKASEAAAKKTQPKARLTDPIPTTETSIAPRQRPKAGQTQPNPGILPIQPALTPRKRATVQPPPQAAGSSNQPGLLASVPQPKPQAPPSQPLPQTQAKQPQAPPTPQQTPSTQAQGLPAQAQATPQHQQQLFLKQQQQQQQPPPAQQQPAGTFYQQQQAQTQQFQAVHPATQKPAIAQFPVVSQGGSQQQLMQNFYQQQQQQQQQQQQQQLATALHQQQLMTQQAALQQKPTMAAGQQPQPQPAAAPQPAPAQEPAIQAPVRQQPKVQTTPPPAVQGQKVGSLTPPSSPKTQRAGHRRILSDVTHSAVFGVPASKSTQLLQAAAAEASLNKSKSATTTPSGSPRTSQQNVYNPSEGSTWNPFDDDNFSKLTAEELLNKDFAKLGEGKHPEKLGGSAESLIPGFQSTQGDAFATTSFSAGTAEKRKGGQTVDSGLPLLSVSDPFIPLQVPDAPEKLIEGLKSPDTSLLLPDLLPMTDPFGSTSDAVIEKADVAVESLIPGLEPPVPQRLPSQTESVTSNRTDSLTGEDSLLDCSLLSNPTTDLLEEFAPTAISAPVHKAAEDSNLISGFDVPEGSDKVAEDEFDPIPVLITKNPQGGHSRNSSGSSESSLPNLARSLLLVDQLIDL

COc1cc2nc(C(N)CC(C)C)nc(C#N)c2cc1-c1cnco1 (centres undefined)
IC50 [1]: 6.2 nM

CC(C)C[C@@H](N)C(=O)Nc1ccc(-c2cnco2)c(OC(F)F)c1
Papp [2]: 96.7 ×10⁻⁶ cm/s | Papp [3]: 91.8 ×10⁻⁶ cm/s | concentration [4]: 27 µM | concentration [5]: 41 µM | permeability ([6]; caco-2, 2 h): 11.3 10^-6 cm/s | Kp [7]: 0.7 | Kp uu [8]: 0.5

COc1cc2nc(C(N)CC(C)C)ncc2cc1-c1cnco1 (centres undefined)
IC50 [1]: 110 nM

CCOc1nc(C(N)CC(C)C)nc2ccc(-c3cnco3)cc12 (centres undefined)
IC50 [1]: 340 nM

CCc1nc([C@H](N)CC(C)C)nc2ccc(-c3cnco3)cc12
IC50 [1]: 220 nM

CC(C)CC(N)c1nc2ccc(-c3ccncc3)cc2cc1C#N (centres undefined)
IC50 [1]: 1800 nM

CC(C)C[C@@H](N)c1cc(C#N)c2cc(-c3ccncc3)ccc2n1
Papp [2]: 40 ×10⁻⁶ cm/s | fraction unbound at 5 h, 10 µM [9]: 0.045 | remaining at 10 min, 0.5 µM [10]: 77% | Kp uu [11]: 0.4 | Papp [3]: 30.7 ×10⁻⁶ cm/s | remaining at 10 min, 0.5 µM [12]: 43% | Papp A→B at 2 h [13]: 13.5 ×10⁻⁶ cm/s | Kp [14]: 1.3 | Papp B→A at 2 h [6]: 10.3 ×10⁻⁶ cm/s | concentration [15]: 29 µM | IC50 [1]: 11 nM | IC50 [16]: 108 nM | concentration [17]: 23 µM | fraction unbound at 5 h, 10 µM [18]: 0.18 | fraction unbound at 5 h, 10 µM [19]: 0.13 | remaining at 10 min, 0.5 µM [20]: 83%

CCc1nc(C(N)CC(C)C)nc2ccc(-c3cnco3)cc12 (centres undefined)
IC50 [1]: 67 nM

CCc1nc(C(N)CC(C)C)nc2cc(OC)c(-c3ccncc3)cc12 (centres undefined)
IC50 [1]: 420 nM

CC(C)C[C@H](N)c1cc(C#N)c2cc(-c3cnco3)ccc2n1
fraction unbound at 5 h, 10 µM [9]: 0.009 | remaining at 10 min, 0.5 µM [10]: 71% | Papp [3]: 93 ×10⁻⁶ cm/s | remaining at 10 min, 0.5 µM [12]: 56% | Papp A→B at 2 h [13]: 7.1 ×10⁻⁶ cm/s | Papp B→A at 2 h [6]: 5.7 ×10⁻⁶ cm/s | IC50 [1]: 4.2 nM | IC50 [16]: 32 nM | fraction unbound at 5 h, 10 µM [18]: 0.014 | fraction unbound at 5 h, 10 µM [19]: 0.03 | remaining at 10 min, 0.5 µM [20]: 76%

CC(C)CC(N)c1cc(C#N)c2cc(-c3ccncc3)ccc2n1 (centres undefined)
IC50 [1]: 7.3 nM

CCNc1nc(C(N)CC(C)C)nc2ccc(-c3cnco3)cc12 (centres undefined)
IC50 [1]: 1100 nM

CCc1nc(C(N)CC(C)C)nc2ccc(-c3ccncc3)cc12 (centres undefined)
IC50 [1]: 44 nM

CCc1nc([C@@H](N)CC(C)C)nc2cc(OC)c(-c3cnco3)cc12
Papp [2]: 80.3 ×10⁻⁶ cm/s | fraction unbound at 5 h, 10 µM [9]: 0.077 | remaining at 10 min, 0.5 µM [10]: 47% | Papp [3]: 78.5 ×10⁻⁶ cm/s | remaining at 10 min, 0.5 µM [12]: 43% | Papp A→B at 2 h [13]: 13.4 ×10⁻⁶ cm/s | Papp B→A at 2 h [6]: 14.2 ×10⁻⁶ cm/s | IC50 [1]: 12 nM | IC50 [16]: 34 nM | fraction unbound at 5 h, 10 µM [18]: 0.17 | fraction unbound at 5 h, 10 µM [19]: 0.1 | remaining at 10 min, 0.5 µM [20]: 83%

CC(C)C[C@H](N)c1cc(C#N)c2cc(-c3ccncc3)ccc2n1
Papp [2]: 112 ×10⁻⁶ cm/s | fraction unbound at 5 h, 10 µM [9]: 0.054 | remaining at 10 min, 0.5 µM [10]: 56% | IC50 [21]: 161 nM | Kp uu [11]: 0.4 | Papp [3]: 96.9 ×10⁻⁶ cm/s | remaining at 10 min, 0.5 µM [12]: 50% | Papp A→B at 2 h [13]: 11.4 ×10⁻⁶ cm/s | IC50 [22]: > 1000 nM | IC50 [23]: 998 nM | Kp [14]: 1.5 | Papp B→A at 2 h [6]: 4.4 ×10⁻⁶ cm/s | concentration [15]: 23 µM | IC50 [1]: 5.8 nM | IC50 [16]: 19 nM | concentration [17]: 16 µM | fraction unbound at 5 h, 10 µM [18]: 0.18 | IC50 [24]: > 1000 nM | fraction unbound at 5 h, 10 µM [19]: 0.14 | IC50 [25]: 112 nM | remaining at 10 min, 0.5 µM [20]: 72% | IC50 [26]: 57 nM

CCc1nc([C@H](N)CC(C)C)nc2cc(OC)c(-c3cnco3)cc12
IC50 [1]: 95 nM

CC(C)C[C@@H](N)c1cc(C#N)c2cc(-c3cnco3)ccc2n1
IC50 [1]: 22 nM

CC(C)CC(N)c1nc(C#N)c2cc(-c3ccncc3)ccc2n1 (centres undefined)
IC50 [1]: 16 nM

CC(C)CC(N)c1ccc2cc(-c3ccncc3)ccc2n1 (centres undefined)
IC50 [1]: 21 nM

CCc1nc([C@@H](N)CC(C)C)nc2ccc(-c3cnco3)cc12
Papp [2]: 93.5 ×10⁻⁶ cm/s | fraction unbound at 5 h, 10 µM [9]: 0.25 | remaining at 10 min, 0.5 µM [10]: 56% | Papp [3]: 90.7 ×10⁻⁶ cm/s | remaining at 10 min, 0.5 µM [12]: 26% | Papp A→B at 2 h [13]: 18.4 ×10⁻⁶ cm/s | Papp B→A at 2 h [6]: 15.6 ×10⁻⁶ cm/s | IC50 [1]: 30 nM | IC50 [16]: 49 nM | fraction unbound at 5 h, 10 µM [18]: 0.32 | fraction unbound at 5 h, 10 µM [19]: 0.11 | remaining at 10 min, 0.5 µM [20]: 62%
